Biological target: PD-1/PD-L1 (Homo sapiens, UniProt Q9NZQ7)
Test: TR-FRET PD-1/PD-L1 binding inhibition at the molecular level (free proteins)
Details: Tag1-PD-L1 and Tag2-PD-1 proteins, twelve concentrations from 200 nM, 2 hours at room temperature, read-out: FRET assay (IC50)
Description: In order to evaluate the inhibitory activity of the compounds synthesized according to the above Preparation Examples against PD-1/PD-L1 molecules in a free protein state,a TR-FRET (Time-Resolved Fluorescence Energy Transfer) experimetn was performed as described below.
Specifically, the compounds were prepared in a 96-well plate by serial dilution starting from 200 nM with 1/2 dilutions to obtain a total of twelve concentrations, and 2 µL of each compound solution was added to a 384-well plate. Thereafter, Tag1-PD-L1 protein and Tag2-PD-1 protein were each prepared at a 1x concentration, mixed at a ratio of 1:1, and 8 µL of the mixed solution was added to each well of the 384-well plate containing the compounds. Anti-Tag1 Eu Cryptate reagent and Anti-Tag2 XL665 antibody were each prepared at a 1* concentration, mixed at a ratio of 1:1, and 10 µL of the mixed solution was added to each well of the 384-well plate containing the compounds and proteins, followed by incubation at room temperature for 2 hours. Upon completion of the reaction, fluorescence signals at wavelengths of 620 nm and 665 nm were measured using a microplate reader.

Sequence of PD-1/PD-L1 (Q9NZQ7 19-238 limits assumed): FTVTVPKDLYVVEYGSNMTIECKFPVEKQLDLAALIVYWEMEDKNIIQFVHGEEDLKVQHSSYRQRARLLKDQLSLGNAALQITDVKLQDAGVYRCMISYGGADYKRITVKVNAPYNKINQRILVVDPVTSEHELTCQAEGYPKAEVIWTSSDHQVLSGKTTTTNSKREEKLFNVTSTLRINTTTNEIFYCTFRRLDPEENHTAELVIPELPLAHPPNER

Compound	IC50 [nM]
Cc1c(NC(=O)c2cc3n(n2)CCCC3NC[C@@H]2CCC(=O)N2)cccc1-c1cccc(Nc2nccc3cc(CN4CC[C@@H](O)C4)cnc23)c1C (stereo partly drawn) [Compound 15, N-(3'-((3-(((R)-3-hydroxypyrrolidin-1-yl)methyl)-1,7-naphthyridin-8-yl)amino)-2,2'-dimethyl-[1,1'-biphenyl]-3-yl)-4-((((S)-5-oxopyrrolidin-2-yl)methyl)amino)-4,5,6,7-tetrahydropyrazolo[1,5-a]pyridine-2-carboxamide]	< 10
Cc1c(NC(=O)c2cc3n(n2)CCCC3NCC(=O)O)cccc1-c1cccc(Nc2nccc3cc(CN4CC[C@@H](O)C4)cnc23)c1C (stereo partly drawn) [Compound 16, 2-((2-((3'-((3-(((R)-3-hydroxypyrrolidin-1-yl)methyl)-1,7-naphthyridin-8-yl)amino)-2,2'-dimethyl-[1,1'-biphenyl]-3-yl)carbamoyl)-4,5,6,7-tetrahydropyrazolo[1,5-a]pyridin-4-yl)amino)acetic acid]	< 10
Cc1c(NC(=O)c2cc3c(NC(C)(C)C(=O)O)cccn3n2)cccc1-c1cccc(Nc2nccc3cc(CN4CC[C@@H](O)C4)cnc23)c1C [Compound 17, (R)-2-((2-((3'-((3-((3-hydroxypyrrolidin-1-yl)methyl)-1,7-naphthyridin-8-yl)amino)-2,2'-dimethyl-[1,1'-biphenyl]-3-yl)carbamoyl)pyrazolo[1,5-a]pyridin-4-yl)amino)-2-methylpropanoic acid]	< 10
O=C(Nc1cccc(-c2cccc(Nc3nccc4cc(CN5CC[C@@H](O)C5)cnc34)c2Cl)c1Cl)c1cc2n(n1)CCCC2O (stereo partly drawn) [Compound 18, N-(2,2'-dichloro-3'-((3-(((R)-3-hydroxypyrrolidin-1-yl)methyl)-1,7-naphthyridin-8-yl)amino)-[1,1'-biphenyl]-3-yl)-4-hydroxy-4,5,6,7-tetrahydropyrazolo[1,5-a]pyridine-2-carboxamide]	10 to 100
CC(=O)NCCNC1CCCn2nc(C(=O)Nc3cccc(-c4cccc(Nc5nccc6cc(CN7CC[C@@H](O)C7)cnc56)c4Cl)c3Cl)cc21 (stereo partly drawn) [Compound 19, 4-((2-acetamidoethyl)amino)-N-(2,2'-dichloro-3'-((3-(((R)-3-hydroxypyrrolidin-1-yl)methyl)-1,7-naphthyridin-8-yl)amino)-[1,1'-biphenyl]-3-yl)-4,5,6,7-tetrahydropyrazolo[1,5-a]pyridine-2-carboxamide]	10 to 100
O=C(Nc1cccc(-c2cccc(Nc3nccc4cc(CN5CC[C@@H](O)C5)cnc34)c2Cl)c1Cl)c1cc2n(n1)CCCC2NCCO (stereo partly drawn) [Compound 20, N-(2,2'-dichloro-3'-((3-(((R)-3-hydroxypyrrolidin-1-yl)methyl)-1,7-naphthyridin-8-yl)amino)-[1,1'-biphenyl]-3-yl)-4-((2-hydroxyethyl)amino)-4,5,6,7-tetrahydropyrazolo[1,5-a]pyridine-2-carboxamide]	10 to 100
O=C1CC[C@@H](CNC2CCCn3nc(C(=O)Nc4cccc(-c5cccc(Nc6nccc7cc(CN8CC[C@@H](O)C8)cnc67)c5Cl)c4Cl)cc32)N1 (stereo partly drawn) [Compound 21, N-(2,2'-dichloro-3'-((3-(((R)-3-hydroxypyrrolidin-1-yl)methyl)-1,7-naphthyridin-8-yl)amino)-[1,1'-biphenyl]-3-yl)-4-((((S)-5-oxopyrrolidin-2-yl)methyl)amino)-4,5,6,7-tetrahydropyrazolo[1,5-a]pyridine-2-carboxamide]	10 to 100
O=C(Nc1cccc(-c2cccc(Nc3nccc4cc(CN5CC[C@@H](O)C5)cnc34)c2Cl)c1Cl)c1cc2n(n1)CCCC2N1CC[C@@H](C(=O)O)C1 (stereo partly drawn) [Compound 22, (3R)-1-(2-((2,2'-dichloro-3'-((3-(((R)-3-hydroxypyrrolidin-1-yl)methyl)-1,7-naphthyridin-8-yl)amino)-[1,1'-biphenyl]-3-yl)carbamoyl)-4,5,6,7-tetrahydropyrazolo[1,5-a]pyridin-4-yl)pyrrolidine-3-carboxylic acid]	< 10
O=C(Nc1cccc(-c2cccc(Nc3nccc4cc(CN5CC[C@@H](O)C5)cnc34)c2Cl)c1Cl)c1cc2n(n1)CCCC2N1CCC(O)CC1 (stereo partly drawn) [Compound 23, N-(2,2'-dichloro-3'-((3-(((R)-3-hydroxypyrrolidin-1-yl)methyl)-1,7-naphthyridin-8-yl)amino)-[1,1'-biphenyl]-3-yl)-4-(4-hydroxypiperidin-1-yl)-4,5,6,7-tetrahydropyrazolo[1,5-a]pyridine-2-carboxamide]	10 to 100
O=C(Nc1cccc(-c2cccc(Nc3nccc4cc(CN5CC[C@@H](O)C5)cnc34)c2Cl)c1Cl)c1cc2n(n1)CCCC2N1CCC(C(=O)O)CC1 (stereo partly drawn) [Compound 24, 1-(2-((2,2'-dichloro-3'-((3-(((R)-3-hydroxypyrrolidin-1-yl)methyl)-1,7-naphthyridin-8-yl)amino)-[1,1'-biphenyl]-3-yl)carbamoyl)-4,5,6,7-tetrahydropyrazolo[1,5-a]pyridin-4-yl)piperidine-4-carboxylic acid]	10 to 100
O=C(Nc1cccc(-c2cccc(Nc3nccc4cc(CN5CC[C@@H](O)C5)cnc34)c2Cl)c1Cl)c1cc2n(n1)CCCC2N1CC[C@@H](O)C1 (stereo partly drawn) [Compound 25, N-(2,2'-dichloro-3'-((3-(((R)-3-hydroxypyrrolidin-1-yl)methyl)-1,7-naphthyridin-8-yl)amino)-[1,1'-biphenyl]-3-yl)-4-((R)-3-hydroxypyrrolidin-1-yl)-4,5,6,7-tetrahydropyrazolo[1,5-a]pyridine-2-carboxamide]	10 to 100
O=C(O)CNC1CCCn2nc(C(=O)Nc3cccc(-c4cccc(Nc5nccc6cc(CN7CC[C@@H](O)C7)cnc56)c4Cl)c3Cl)cc21 (stereo partly drawn) [Compound 26, 2-((2-((2,2'-dichloro-3'-((3-(((R)-3-hydroxypyrrolidin-1-yl)methyl)-1,7-naphthyridin-8-yl)amino)-[1,1'-biphenyl]-3-yl)carbamoyl)-4,5,6,7-tetrahydropyrazolo[1,5-a]pyridin-4-yl)amino)acetic acid]	< 10
CC(C)(NC1CCCn2nc(C(=O)Nc3cccc(-c4cccc(Nc5nccc6cc(CN7CC[C@@H](O)C7)cnc56)c4Cl)c3Cl)cc21)C(=O)O (stereo partly drawn) [Compound 27, 2-((2-((2,2'-dichloro-3'-((3-(((R)-3-hydroxypyrrolidin-1-yl)methyl)-1,7-naphthyridin-8-yl)amino)-[1,1'-biphenyl]-3-yl)carbamoyl)-4,5,6,7-tetrahydropyrazolo[1,5-a]pyridin-4-yl)amino)-2-methylpropanoic acid]	10 to 100
Cc1c(Nc2nccc3cc(CN4CC[C@@H](O)C4)cnc23)cccc1-c1cccc(NC(=O)c2cc3n(n2)CCCC3NCCO)c1Cl (stereo partly drawn) [Compound 28, N-(2-chloro-3'-((3-(((R)-3-hydroxypyrrolidin-1-yl)methyl)-1,7-naphthyridin-8-yl)amino)-2'-methyl-[1,1'-biphenyl]-3-yl)-4-((2-hydroxyethyl)amino)-4,5,6,7-tetrahydropyrazolo[1,5-a]pyridine-2-carboxamide]	< 10
Cc1c(Nc2nccc3cc(CN4CC[C@@H](O)C4)cnc23)cccc1-c1cccc(NC(=O)c2cc3n(n2)CCCC3N2CC[C@@H](O)C2)c1Cl (stereo partly drawn) [Compound 29, N-(2-chloro-3'-((3-(((R)-3-hydroxypyrrolidin-1-yl)methyl)-1,7-naphthyridin-8-yl)amino)-2'-methyl-[1,1'-biphenyl]-3-yl)-4-((R)-3-hydroxypyrrolidin-1-yl)-4,5,6,7-tetrahydropyrazolo[1,5-a]pyridine-2-carboxamide]	< 10
CC(=O)NCCNC1CCCn2nc(C(=O)Nc3cccc(-c4cccc(Nc5nccc6cc(CN7CC[C@@H](O)C7)cnc56)c4C)c3Cl)cc21 (stereo partly drawn) [Compound 30, 4-((2-acetamidoethyl)amino)-N-(2-chloro-3'-((3-(((R)-3-hydroxypyrrolidin-1-yl)methyl)-1,7-naphthyridin-8-yl)amino)-2'-methyl-[1,1'-biphenyl]-3-yl)-4,5,6,7-tetrahydropyrazolo[1,5-a]pyridine-2-carboxamide]	< 10
Cc1c(Nc2nccc3cc(CN4CC[C@@H](O)C4)cnc23)cccc1-c1cccc(NC(=O)c2cc3n(n2)CCCC3NC[C@@H]2CCC(=O)N2)c1Cl (stereo partly drawn) [Compound 31, N-(2-chloro-3'-((3-(((R)-3-hydroxypyrrolidin-1-yl)methyl)-1,7-naphthyridin-8-yl)amino)-2'-methyl-[1,1'-biphenyl]-3-yl)-4-((((S)-5-oxopyrrolidin-2-yl)methyl)amino)-4,5,6,7-tetrahydropyrazolo[1,5-a]pyridine-2-carboxamide]	< 10
Cc1c(Nc2nccc3cc(CN4CC[C@@H](O)C4)cnc23)cccc1-c1cccc(NC(=O)c2cc3n(n2)CCCC3NCC(=O)O)c1Cl (stereo partly drawn) [Compound 32, 2-((2-((2-chloro-3'-((3-(((R)-3-hydroxypyrrolidin-1-yl)methyl)-1,7-naphthyridin-8-yl)amino)-2'-methyl-[1,1'-biphenyl]-3-yl)carbamoyl)-4,5,6,7-tetrahydropyrazolo[1,5-a]pyridin-4-yl)amino)acetic acid]	< 10
Cc1c(Nc2nccc3cc(CN4CC[C@@H](O)C4)cnc23)cccc1-c1cccc(NC(=O)c2cc3n(n2)CCCC3N2CC[C@@H](C(=O)O)C2)c1Cl (stereo partly drawn) [Compound 33, (3R)-1-(2-((2-chloro-3'-((3-(((R)-3-hydroxypyrrolidin-1-yl)methyl)-1,7-naphthyridin-8-yl)amino)-2'-methyl-[1,1'-biphenyl]-3-yl)carbamoyl)-4,5,6,7-tetrahydropyrazolo[1,5-a]pyridin-4-yl)pyrrolidine-3-carboxylic acid]	< 10

Reference: patent EP4755888A1 (ILAb Co., Ltd., priority 2023, dated 2025)
